Three compounds from US20040229205A1, “Compositions for the storage of platelets” (priority 2003, published 2004) can be followed below.

Common to all, as to format: cell-based
Experiment [1] deals with platelets (ATP secretion). Nature of the experiment: ATP secretion of stored platelets in response to 10 nM thrombin (luciferin/luciferase). From the text:
Yet another measure of platelet function is the secretion of ATP. Platelets that are able to function well are able to secrete ATP while cells that have already been activated or have lost funciton in other ways cannot secrete ATP.
The platelet dense granules shown in FIG. 1 contain ATP which is released in response to platelet agonists such as thrombin, collagen or adenosine diphosphate (ADP). The release reaction of ATP from platelets serves as another method to monitor platelet function. There are many methods to analyze ATP. A convenient method is the well known luciferin/luciferase reaction (Sigma Chemical, St. Louis). This assay is derived from the light producing system of the firefly. The substrate luciferin, in the presence of ATP, is cleaved by the enzyme luciferase, accompanied by the emission of light. The emitted light is measured by a photomultiplier tube
Platelet suspensions containing about 350 units in 40 μl were mixed with 10 μl luciferin/luciferase reagent. An agonist is injected. As the platelet dense granules release ATP, the bioluminescent reaction occurs, which is measured by the photomultiplier tube. […] The rate of reaction is recorded and as platelet function decays, the rate decays. Total ATP was measured by lysing the cells with Triton and determining ATP content. The results as presented in Table III are expressed as intact rate of ATP secretion.

The next experiment relates to platelets (aggregation). The experiment can be described thus: Platelet aggregation on thrombin challenge (optical density / aggregometer). From the text:
Another parameter of platelet function is the ability to aggregate when challenged by an agonist. The platelet suspension is dense and milky white. Aggregation and subsequent settling of the aggregates can be estimated visually, or measured with a densitometer.
As a second measure of the effect of ribose on platelets, platelet aggregation was estimated. Platelet aggregation is a crucial function of platelet activity; platelets that cannot aggregate are essentially nonfunctional. Platelets were stored as above. The optical density of the suspension was measured before and after thrombin challenge.
Platelet aggregation was measured with a platelet aggregometer (Chronolog, Inc., Irvine, Calif.). Platelet-rich, turbid suspensions were stirred in a cuvette and the transmittance of light through the sample relative to a platelet poor blank is recorded. When a aggregating agent is added, activated platelets with exposed fibrinogen receptors (GPIIbIIIa) are brought in close contact with each other in a medium containing calcium and fibrinogen and form increasingly large platelet aggregates, accompanied by a decrease in turbidity. The change in optical density was then translated by the instrument to percent aggregation. Simple stated, as platelets clump, more light passes through the cuvette.

In experiment [2] the test system is platelets (P-selectin expression). Nature of the experiment: P-selectin expression of stored platelets by flow cytometry, basal and after 10 nM thrombin challenge. The source says: Internal protein expression may be measured by conjugation of a molecule with a fluorescent dye, followed by sorting in a fluorescent cell sorter. In general, it is preferable to use two monoclonal antibodies, one that binds a cell surface molecule expressed and a second that binds a cell surface molecule that is expressed only after activation. Each monoclonal antibody is conjugated to a different colored dye, that can be distinguished by spectrofluorometry. In the preferred embodiment, the normally expressed cell surface molecule is GPIIbIIIa; the cell surface molecule expressed after activation is P-selectin. It is well know in the art to make monoclonal antibodies to proteins. U.S. Pat. No. 5,470,738, issued in 1995 to Freilich et al, is one example of a method of making monoclonal antibodies to GPIIIa. Another anti-platelet monoclonal antibody is that to GP IV, as disclosed by U.S. Pat. No. 5,231,025, issued in 1993 to Gralnisch. However, it is most convenient to purchase antibodies commercially from such companies as Becton-Dickinson (Philadelphia).
A basal measurement of spontaneous activation is obtained and the cells are then challenged with an agonist. The difference between cells challenged to activate minus the basal measurement is a measure of cell function. In the preferred embodiment, the agonist is 10 nM thrombin.
P-selectin is an internal protein that is exposed on the surface of the platelet after activation. Once activated, platelets cannot be activated again, that is, they are nonfunctional. Platelets which have aggregated are likewise nonfunctional. Measurement of P-selectin before and after activation with thrombin provides a measure of the ability of the platelets to be activated.
P-selectin expression in response to a challenge of 10 nM thrombin is a highly accurate and quantitative method to assess platelet function using flow cytometry techniques. A monoclonal antibody to the platelet GPIIbIIIa receptor (Becton-Dickinson) is conjugated with green fluorescence, marking all platelets with a green detection. […] About 10,000 to 25,000 platelets are counted and measured for P-selectin expression and the % positive cells are defined as activated platelets that express P-selectin. Platelets that are activated are not capable of being activated a second time; that is, they are essentially nonfunctional.
It was proposed years ago by Dawson (Transfusion 21:215-218. (1981)) that ribose at the concentration of 15 mM is beneficial to stored whole blood. It was assumed that ribose functioned by raising the energy levels of the cells, as discussed at length in U.S. Pat. No. 6,159,942. […] However, it should be noted that the platelet storage milieu is an austere environment, lacking the homeostatic and buffering mechanisms of the kidneys, lungs and livers of an intact organism. Various concentrations of D-Ribose were tested to determine the optimum level for platelet storage. […] Platelet concentrate bags were obtained from a local transfusion center within two hours of collection from the donor. The platelets were either supplemented with the D-Ribose cocktail directly into the bag or the platelets were divided into a series of 10 tubes into each of which two ml of platelets were added. Platelet function was assessed by ATP secretion, platelet aggregation, P-selectin expression, platelet count and pH. Platelet function was measured every 24 hours. The bags and tubes were placed on a rotating wheel at room temperature for the duration of the experiment.
For the concentration test, platelets were stored for five days in standard platelet storage solution at room temperature and gentle agitation with or without various levels of ribose. At five days the P-selectin expression test was performed.
On the technique in general: Flow cytometry measures light scatter and fluorescence of single cells or particles in a stream.

In the next experiment the test system is platelets. The experiment can be described thus: Preservation of platelet function in stored platelets, methods of examples 1 to 6. The procedure:
It is known that other pentoses may have similar effects as D-Ribose, either through intracellular conversion to riboe or a direct effect. Ribulose-5-phosphate, xylulose-5-phosphate and xylitol were tested for preservation of activity in stored platelets according to the methods of examples 1 to 6.
Bacterial contamination was measured by colony counts in standard Petri dishes that had been inculated with the test solution. It is assumed that the millimolar glucose concentration in most platelet storage solutions contributes to the growth of bacteria. As noted above, Murphy (Table II) discloses a glucose-free solution for the storage of platelets. Elimination of reduction of glucose levels from millimolar to micromolar concentrations has a profound effect in reducing bacterial contamination, however, platelet function at five days, as measured by ATP secretion and P-selectin expression, was poor.

[3] abbreviates: 1.5 mM down to 150 pM, analyzed every 24 hours.

Turning to `O=C(CO)[C@H](O)[C@H](O)COP(=O)(O)O` [Ribulose-5-phosphate], the “ATP secretion in response to 10 nM thrombin versus controls” value in experiment [1] (setting [3]) is “No difference from controls”. The “platelet aggregation versus controls” value in the experiment with platelets (aggregation) (setting [3]) is given as “No difference from controls”. The “P-selectin expression in response to thrombin challenge versus controls” value in experiment [2] (setting [3]) is “No difference from controls”.

Take `OC[C@@H](O)[C@H](O)[C@@H](O)CO` [xylitol]: in the experiment with platelets, the “preservation of platelet function” value is listed as “some benefit”.

In the case of `O=C(CO)[C@@H](O)[C@H](O)COP(=O)(O)O` [xylulose-5-phosphate, Xylulose-5-phosphate], the “ATP secretion, retention of basal value” in experiment [1] (five days storage) came out at 64.5%. In addition, the platelet aggregation entry with platelets (aggregation) (five days storage) is “weak”. Moreover, in experiment [2] (five-day treated platelets), the “P-selectin expression in response to 10 nM thrombin challenge” value came out at 67.7% and the P-selectin spontaneous expression was 37.5%.
